# Experimental data reported in ChEMBL document CHEMBL4190179 (Medchemcomm, 2016).
# System: not listed separately
# Test: (§1) Inhibition of PMA-stimulated Il-17A production in mouse Th17 cells by live/dead fixable dead cell staining based flow cytometric analysis
# Type: functional
row,SMILES,IC50 [nM]
1,O=C(Nc1ccc(-c2cc(OC(F)(F)F)ccc2Cl)cc1)c1c(F)cccc1F,13

# Organism: Mus musculus
# Test: as §1
# Type: functional
row,SMILES,inhibition
1,O=C(Nc1ccc(-c2cc(OC(F)(F)F)ccc2Cl)cc1)c1c(F)cccc1F,Dose-dependent effect

# System: not listed separately
# Test: Inhibition of PMA-stimulated Il-17A production in mouse Th17 cells at 0.3 uM by live/dead fixable dead cell staining based flow cytometric analysis relative to control
# Type: functional
row,SMILES,inhibition at 0.3 µM [%]
1,COc1ccc(Cl)c(-c2ccc(NC(=O)CC3CC3)cc2)c1,9
2,COc1ccc(Cl)c(-c2ccc(NC(=O)C3CC3)cc2)c1,35
3,COc1ccc(Cl)c(-c2ccc(NC(=O)c3c(F)cccc3F)cc2F)c1,82
4,O=C(Nc1ccc(-c2cccnc2)cc1)c1c(F)cccc1F,17
5,COc1ccc(Cl)c(-c2ccc(NC(=O)c3ccccc3Cl)cc2)c1,39
6,COc1ccc(Cl)c(-c2ccc(NC(=O)Cc3ccccc3)cc2)c1,33
7,COc1ccc(Cl)c(-c2ccc(NC(=O)C3CCOCC3)cc2)c1,35
8,COCC(=O)Nc1ccc(-c2cc(OC)ccc2Cl)cc1,1
9,COc1ccc(Cl)c(-c2ccc(NC(=O)c3c(F)cccc3F)cc2Cl)c1,75
10,COc1ccc(C)c(-c2ccc(NC(=O)c3c(F)cccc3F)cc2)c1,93
11,COc1ccc(Cl)c(-c2ccc(NC(=O)CC3CCOCC3)cc2)c1,8
12,COc1ccc(Cl)c(-c2ccc(NC(=O)c3c(F)cccc3F)cc2)c1,71
13,COc1ccc(Cl)c(-c2ccc(NC(=O)C3CCN(C)CC3)cc2)c1,16
14,COc1ccc(Cl)c(-c2ccc(NC(=O)C(C)C)cc2)c1,22
15,COc1ccc(Cl)c(-c2cccc(NC(=O)c3c(F)cccc3F)c2)c1,12
16,COc1ccc(Cl)c(-c2ccc(NC(=O)c3ccccc3C(F)(F)F)cc2)c1,25
17,COc1ccc(Cl)c(-c2ccc(NC(=O)C3CCCO3)cc2)c1 (configuration not stated),30

row,SMILES,inhibition at 0.3 µM [%]
1,O=C(Nc1ccc(-c2ccccc2Cl)cc1)c1c(F)cccc1F,48
2,Cc1ccc(-c2ccc(NC(=O)c3c(F)cccc3F)cc2)cn1,4
3,COc1ccc(Cl)c(-c2ccc(NC(=O)c3ccccc3)cc2)c1,35
4,Cc1ccccc1-c1ccc(NC(=O)c2c(F)cccc2F)cc1,60
5,COc1ccc(Cl)c(-c2ccc(NC(=O)c3ncccc3F)cc2)c1,22
6,COc1ccc(Cl)c(-c2ccc(NC(=O)C3CCCCC3)cc2)c1,26
7,COc1ccc(Cl)c(-c2ccc(NC(=O)C3CCCC3)cc2)c1,34
8,O=C(Nc1ccc(-c2ccccc2)cc1)c1c(F)cccc1F,45
9,COc1ccc(Cl)c(-c2ccc(NC(=O)c3c(F)cccc3F)cn2)c1,29
10,O=C(O)c1ccc(Cl)c(-c2ccc(NC(=O)c3c(F)cccc3F)cc2)c1,7
11,COc1ccc(Cl)c(-c2ccc(NC(=O)CCc3ccccc3)cc2)c1,24
12,COc1ccc(Cl)c(-c2ccc(NC(=O)Cc3ccccc3F)cc2)c1,19
13,COc1ccc(Cl)c(-c2ccc(NC(C)=O)cc2)c1,11
14,COc1ccc(Cl)c(-c2ccc(NC(=O)c3ccccc3F)cc2)c1,43
15,COc1ccc(Cl)c(-c2ccc(NC(=O)c3c(F)cccc3Cl)cc2)c1,64
16,O=C(Nc1ccc(-c2cc(OC(F)(F)F)ccc2Cl)cc1)c1c(F)cccc1F,97
17,Cn1cc(-c2ccc(NC(=O)c3c(F)cccc3F)cc2)cn1,-7

# Target: T1, Nuclear receptor ROR-gamma (Homo sapiens, UniProt P51449)
# T1 sequence (P51449 whole entry): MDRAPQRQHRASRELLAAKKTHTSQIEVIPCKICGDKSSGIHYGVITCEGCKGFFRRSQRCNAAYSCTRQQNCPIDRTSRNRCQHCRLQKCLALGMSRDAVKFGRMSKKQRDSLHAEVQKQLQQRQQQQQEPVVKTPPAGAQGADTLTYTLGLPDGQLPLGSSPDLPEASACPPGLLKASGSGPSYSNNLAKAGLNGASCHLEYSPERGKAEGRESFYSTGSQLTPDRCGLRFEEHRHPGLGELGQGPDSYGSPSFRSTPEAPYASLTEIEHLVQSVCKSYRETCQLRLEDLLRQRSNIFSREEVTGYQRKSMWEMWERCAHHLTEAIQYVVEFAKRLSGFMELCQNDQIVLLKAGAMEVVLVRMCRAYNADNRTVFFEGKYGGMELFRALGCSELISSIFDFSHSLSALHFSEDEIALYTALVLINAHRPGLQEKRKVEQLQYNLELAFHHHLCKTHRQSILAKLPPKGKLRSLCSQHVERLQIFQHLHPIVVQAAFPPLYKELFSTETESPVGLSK
# Test: Inverse agonist activity at RORgammat (unknown origin) by FRET assay
row,SMILES,IC50 [nM]
1,O=C(Nc1ccc(-c2cc(OC(F)(F)F)ccc2Cl)cc1)c1c(F)cccc1F,> 50000
